*1 amine or outer side, *2 acyl side, *3 side chain or, on linkers, in order; H or OH if unused. Where a SMILES comes first, the peptide text is derived from it. Bridges are numbered along the chain shown (N, C = ends). [ ]: non-standard residue; d: D form. The star is where a group is joined. hPhe(3-Cl-4-CF3) = N[C@@H](CCc1ccc(C(F)(F)F)c(Cl)c1)C(=O)O; X47 = O=C([C@H](Cc1ccc(C(F)(F)F)cc1)N(CCCF)[*:1])[*:2]; NMeGly(cPent) = CN[C@H](C(=O)O)C1CCCC1; NMeD = CN[C@@H](CC(=O)O)C(=O)O; NMeL = CN[C@@H](CC(C)C)C(=O)O; Morpholide = C1CN(*)CCO1; NMeA = CN[C@@H](C)C(=O)O; Ac5c = NC1(C(=O)O)CCCC1; Aze = O=C(O)[C@@H]1CCN1; Sar = CNCC(=O)O
Assays:
[1] = biological target: GDP-bound NRAS wild-type protein (Homo sapiens, UniProt P01111); experiment: Binding to NRAS by surface plasmon resonance (SPR), Single Cycle Kinetics; conditions: SPR; for NRAS/KRAS (ratio of KD value with respect to NRAS to KD value with respect to KRAS): GDP-bound NRAS wild-type vs GDP-bound KRAS wild-type
Sequence of GDP-bound NRAS wild-type protein (P01111 whole entry): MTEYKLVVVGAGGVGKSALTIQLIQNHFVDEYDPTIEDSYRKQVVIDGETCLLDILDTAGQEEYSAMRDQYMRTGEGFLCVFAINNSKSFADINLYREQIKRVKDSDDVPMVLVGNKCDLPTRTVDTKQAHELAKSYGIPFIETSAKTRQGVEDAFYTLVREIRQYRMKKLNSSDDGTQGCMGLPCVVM

[2] = biological target: GDP-bound HRAS wild-type protein (Homo sapiens, UniProt P01112); experiment: Binding to HRAS by surface plasmon resonance (SPR), Single Cycle Kinetics; conditions: SPR; for HRAS/KRAS (ratio of KD value with respect to HRAS to KD value with respect to KRAS): GDP-bound HRAS wild-type vs GDP-bound KRAS wild-type
Sequence of GDP-bound HRAS wild-type protein (P01112 whole entry): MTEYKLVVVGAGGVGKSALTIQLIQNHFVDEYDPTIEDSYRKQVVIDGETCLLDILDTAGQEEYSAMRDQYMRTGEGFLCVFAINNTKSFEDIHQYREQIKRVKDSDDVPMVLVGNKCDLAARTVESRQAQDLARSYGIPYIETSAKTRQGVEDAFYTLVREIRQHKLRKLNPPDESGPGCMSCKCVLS

SMILES | NRAS/KRAS (ratio of KD value with respect to NRAS to KD value with respect to KRAS) [1] | HRAS/KRAS (ratio of KD value with respect to HRAS to KD value with respect to KRAS) [2] | further results
CC[C@H](C)[C@@H]1NC(=O)[C@H](C(C)C)N(C)C(=O)C[C@@H](C(=O)N(C)CC)N(C)C(=O)[C@H](C2CCCC2)N(C)C(=O)C2(CCC2)NC(=O)[C@@H]2C[C@H](C)CN2C(=O)[C@H](CCc2ccc(C(F)(F)F)c(OC)c2)NC(=O)CN(C)C(=O)[C@H](Cc2ccc(C(F)(F)F)cc2)N2CC/C=C\C[C@@H](C2=O)N(C)C(=O)CN(C)C1=O [PP2065] | A (a compound having 10 or more and less than 20 is denoted as A) | B (a compound having 3 or more and less than 10 is denoted as B) | –
CCO[C@@H]1C[C@H]2C(=O)NC3(CC(C)(C)C3)C(=O)N(C)[C@@H](C(CC)CC)C(=O)N(C)[C@H](C(=O)N(C)C)CC(=O)N(C)[C@@H](CC)C(=O)N[C@@H]([C@@H](C)CC)C(=O)N(C)CC(=O)N(C)[C@H]3C/C=C\CCN(C3=O)[C@@H](Cc3ccc(C(F)(F)F)cc3)C(=O)N(C)CC(=O)N[C@@H](CCc3ccc(C(F)(F)F)c(OC)c3)C(=O)N2C1 [PP2066] | A (a compound having 10 or more and less than 20 is denoted as A) | B (a compound having 3 or more and less than 10 is denoted as B) | –
CCOC[C@H]1C(=O)N[C@@H]([C@@H](C)CC)C(=O)N2CCC[C@H]2C(=O)N(C)[C@H]2C/C=C\CCN(C2=O)[C@@H](CC2CCC(F)(F)CC2)C(=O)N(C)CC(=O)N[C@@H](CCc2ccc(C(F)(F)F)c(OC)c2)C(=O)N2C[C@H](OCC)C[C@H]2C(=O)N(C)C2(CCC2)C(=O)N(C)[C@@H](C(CC)CC)C(=O)N(C)[C@H](C(=O)N(C)C)CC(=O)N1C [PP2355] | AA (a compound having 20 or more is denoted as AA) | A (a compound having 10 or more and less than 20 is denoted as A) | –
C=CCN1CC(=O)N(C)[C@H]2C/C=C\CCN(C2=O)[C@@H](Cc2ccc(C)cc2)C(=O)N(C)CC(=O)N[C@@H](CCc2cc(F)c(C(F)(F)F)c(F)c2)C(=O)N2C[C@H](OCC)C[C@H]2C(=O)NC2(CC(C)(C)C2)C(=O)N(C)[C@@H](C2CCCC2)C(=O)N(C)[C@H](C(=O)N(C)C)CC(=O)N(C)[C@@H](CCC)C(=O)N[C@@H]([C@@H](C)CC)C1=O [PP2094] | A (a compound having 10 or more and less than 20 is denoted as A) | A (a compound having 10 or more and less than 20 is denoted as A) | –
CCO[C@@H]1C[C@H]2C(=O)NC3(CCC3)C(=O)N(C)[C@@H](C3CCCC3)C(=O)N(C)[C@H](C(=O)N(C)C)CC(=O)N(C)[C@@H](CC)C(=O)N[C@@H]([C@@H](C)CC)C(=O)N(C)CC(=O)N(C)[C@H]3CCCCCN(C3=O)[C@@H](Cc3ccc(F)cc3)C(=O)N(C)CC(=O)N[C@@H](CCc3cc(F)c(C(F)(F)F)c(F)c3)C(=O)N2C1 [PP1190] | – | – | NRAS/KRAS (ratio of KD value with respect to NRAS to KD value with respect to KRAS) ([1]; KD ratio): B (a compound having 3 or more and less than 10 is denoted as B); HRAS/KRAS (ratio of KD value with respect to HRAS to KD value with respect to KRAS) ([2]; KD ratio): B (a compound having 3 or more and less than 10 is denoted as B)
CC[C@H](C)[C@@H]1NC(=O)[C@H](CC(C)C)N(C)C(=O)C[C@@H](C(=O)N2CCOCC2)N(C)C(=O)[C@H](C2CCCC2)N(C)C(=O)C2(CCCC2)NC(=O)[C@@H]2CCCN2C(=O)[C@H](CCc2ccc(C(F)(F)F)c(Cl)c2)NC(=O)CN(C)C(=O)[C@H](Cc2ccc(C(F)(F)F)cc2)N(CCCF)C(=O)[C@@H]2CCN2C(=O)[C@H](C)N(C)C1=O [PP0525] ([NMeL]I[NMeA][Aze][X47][Sar][hPhe(3-Cl-4-CF3)]P[Ac5c][NMeGly(cPent)][NMeD]-Morpholide; lactam N-11) | – | – | NRAS/KRAS (ratio of KD value with respect to GDP-bound NRAS wild-type protein to KD value with respect to KRAS) ([1]; KD ratio NRAS/KRAS): C (A compound having a KD ratio of 0.1 or more and less than 3 is denoted as C); HRAS/KRAS (ratio of KD value with respect to GDP-bound HRAS wild-type protein to KD value with respect to KRAS) ([2]; KD ratio HRAS/KRAS): B (a compound having 3 or more and less than 10 is denoted as B)
CCO[C@@H]1C[C@H]2C(=O)NC3(CCC3)C(=O)N(C)[C@@H](C3CCCC3)C(=O)N(C)[C@H](C(=O)N(C)C)CC(=O)N(C)[C@@H](CC)C(=O)N[C@@H]([C@@H](C)CC)C(=O)N3CCCC[C@H]3C(=O)N(C)[C@H]3C/C=C\CCN(C3=O)[C@@H](Cc3ccc(C(F)(F)F)cc3)C(=O)N(C)CC(=O)N[C@@H](CCc3cc(F)c(C(F)(F)F)c(F)c3)C(=O)N2C1 [PP1058] | – | – | NRAS/KRAS (ratio of KD value with respect to NRAS to KD value with respect to KRAS) ([1]; KD ratio): A (a compound having 10 or more and less than 20 is denoted as A); HRAS/KRAS (ratio of KD value with respect to HRAS to KD value with respect to KRAS) ([2]; KD ratio): B (a compound having 3 or more and less than 10 is denoted as B)
